Converted amounts (≈) assume the structure as drawn.
Key:
[1] = tested on: Staphylococcus aureus; experiment: Antibacterial activity against Staphylococcus aureus ATCC 29213 assessed as inhibition of visible growth incubated for 18 hrs by CLSI protocol based microbroth dilution method; format: functional
[2] = tested on: Pseudomonas aeruginosa; experiment: Antibacterial activity against Pseudomonas aeruginosa ATCC 27853 assessed as inhibition of visible growth incubated for 18 hrs by CLSI protocol based microbroth dilution method; format: functional
[3] = tested on: Escherichia coli; experiment: Antibacterial activity against Escherichia coli ATCC 25922 assessed as inhibition of visible growth incubated for 18 hrs by CLSI protocol based microbroth dilution method; format: functional
[4] = tested on: Acinetobacter baumannii; experiment: Antibacterial activity against Acinetobacter baumannii clinical isolate CAN-ICU 63169 assessed as inhibition of visible growth incubated for 18 hrs by CLSI protocol based microbroth dilution method; format: functional
[5] = tested on: Stenotrophomonas maltophilia; experiment: Antibacterial activity against Stenotrophomonas maltophilia clinical isolate CAN-ICU 62584 assessed as inhibition of visible growth incubated for 18 hrs by CLSI protocol based microbroth dilution method; format: functional
[6] = tested on: Pseudomonas aeruginosa; experiment: Potentiation of ciprofloxacin-induced antibacterial activity against wild type Pseudomonas aeruginosa PAO1 assessed as ciprofloxacin MIC measured after 18 hrs by CLSI protocol based microbroth dilution method (reference value: 0.125 ug/ml); format: functional
[7] = tested on: Staphylococcus aureus; experiment: Antibacterial activity against methicillin-resistant Staphylococcus aureus ATCC 33592 assessed as inhibition of visible growth incubated for 18 hrs by CLSI protocol based microbroth dilution method; format: functional
[8] = tested on: Staphylococcus aureus; experiment: Antibacterial activity against methicillin-resistant Staphylococcus aureus clinical isolate CAN-ICU 61589 assessed as inhibition of visible growth incubated for 18 hrs by CLSI protocol based microbroth dilution method; format: functional
[9] = tested on: Klebsiella pneumoniae; experiment: Antibacterial activity against Klebsiella pneumoniae 116381 assessed as inhibition of visible growth incubated for 18 hrs by CLSI protocol based microbroth dilution method; format: functional
[10] = tested on: Enterococcus faecalis; experiment: Antibacterial activity against Enterococcus faecalis ATCC 29212 assessed as inhibition of visible growth incubated for 18 hrs by CLSI protocol based microbroth dilution method; format: functional
[11] = tested on: Pseudomonas aeruginosa; experiment: Potentiation of levofloxacin-induced antibacterial activity against wild type Pseudomonas aeruginosa PAO1 assessed as levofloxacin MIC measured after 18 hrs by CLSI protocol based microbroth dilution method (reference value: 0.5 ug/ml); format: functional
[12] = tested on: Enterobacter cloacae; experiment: Antibacterial activity against Enterobacter cloacae 117029 assessed as inhibition of visible growth incubated for 18 hrs by CLSI protocol based microbroth dilution method; format: functional
[13] = tested on: Streptococcus pneumoniae; experiment: Antibacterial activity against Streptococcus pneumoniae ATCC 49619 assessed as inhibition of visible growth incubated for 18 hrs by CLSI protocol based microbroth dilution method; format: functional
[14] = tested on: Staphylococcus epidermidis; experiment: Antibacterial activity against methicillin-susceptible Staphylococcus epidermidis clinical isolate CANWARD-2008 81388 assessed as inhibition of visible growth incubated for 18 hrs by CLSI protocol based microbroth dilution method; format: functional
[15] = tested on: Pseudomonas aeruginosa; experiment: Potentiation of moxifloxacin-induced antibacterial activity against wild type Pseudomonas aeruginosa PAO1 assessed as moxifloxacin MIC measured after 18 hrs by CLSI protocol based microbroth dilution method (reference value: 1 ug/ml); format: functional
[16] = tested on: Pseudomonas aeruginosa; experiment: microbe, parasite or virus in culture; details: PAO1, 18 h
[17] = tested on: Pseudomonas aeruginosa; experiment: microbe, parasite or virus in culture; details: PAO1, 18 h; remark: listed apart in the source
[18] = tested on: Pseudomonas aeruginosa; experiment: microbe, parasite or virus in culture; details: PAO1, 18 h; remark: listed apart in the source

| SMILES | MIC [1] [µg/mL] | MIC [2] [µg/mL] | MIC [3] [µg/mL] | MIC [4] [µg/mL] | MIC [5] [µg/mL] | MIC [6] [µg/mL] | MIC [7] [µg/mL] | MIC [8] [µg/mL] | MIC [9] [µg/mL] | MIC [10] [µg/mL] | MIC [11] [µg/mL] | MIC [12] [µg/mL] | MIC [13] [µg/mL] | MIC [14] [µg/mL] | MIC [15] [µg/mL] | MIC [16] [µg/mL] | MIC [17] [µg/mL] | MIC [18] [µg/mL] |
| --- | --- | --- | --- | --- | --- | --- | --- | --- | --- | --- | --- | --- | --- | --- | --- | --- | --- | --- |
| C[C@H]1COc2c(N3CCN(C)CC3)c(F)cc3c(=O)c(C(=O)NCCCCCCCCCCCC(=O)N[C@@H](CCN)C(N)=O)cn1c23 | 128 (≈ 195 µM) | > 128 | > 128 | > 128 | > 128 | 0.063 | > 128 | 128 (≈ 195 µM) | > 128 | > 128 | 0.25 | 128 (≈ 195 µM) | > 128 | 64 (≈ 97.3 µM) | 1 |  |  |  |
| C[C@H]1COc2c(N3CCN(C)CC3)c(F)cc3c(=O)c(C(=O)O)cn1c23.C[C@H]1COc2c(N3CCN(C)CC3)c(F)cc3c(=O)c(C(=O)O)cn1c23.O [LEVOFLOXACIN] | ≤ 0.25 |  | ≤ 0.25 | 1 | 4 |  | ≤ 0.25 | > 128 | 128 | 2 |  | 0.125 |  | ≤ 0.25 |  | 16 | 16 |  |
| C[C@H]1COc2c(N3CCN(C)CC3)c(F)cc3c(=O)c(C(=O)N[C@@H](CCC(=O)O)C(=O)N[C@H](CN)CCC(=O)O)cn1c23 | > 128 | > 128 | 128 (≈ 212 µM) | > 128 | 16 (≈ 26.5 µM) | 0.125 | > 128 | > 128 | > 128 | > 128 | 0.5 | > 128 | > 128 | > 128 | 1 |  |  |  |
| C[C@H]1COc2c(N3CCN(C)CC3)c(F)cc3c(=O)c(C(=O)N[C@H](CN)CCC(=O)O)cn1c23 | > 128 | > 128 | > 128 | > 128 | > 128 | 0.125 | > 128 | > 128 | > 128 | > 128 | 0.5 | > 128 | > 128 | > 128 | 1 |  |  |  |
| C[C@H]1COc2c(N3CCN(C)CC3)c(F)cc3c(=O)c(C(=O)N[C@@H](CCN)C(N)=O)cn1c23 | > 128 | > 128 | 128 (≈ 278 µM) | > 128 | > 128 | 0.125 | > 128 | > 128 | > 128 | > 128 | 0.5 | > 128 | > 128 | > 128 | 1 |  |  |  |
| C[C@H]1COc2c(N3CCN(C)CC3)c(F)cc3c(=O)c(C(=O)N[C@@H](CCN)C(=O)N[C@@H](CCN)C(N)=O)cn1c23 | > 128 | > 128 | 128 (≈ 228 µM) | > 128 | > 128 | 0.125 | > 128 | > 128 | > 128 | > 128 | 0.25 | > 128 | > 128 | > 128 | 1 |  |  |  |
| COc1c(N2C[C@@H]3CCCN[C@@H]3C2)c(F)cc2c(=O)c(C(=O)O)cn(C3CC3)c12 [MOXIFLOXACIN] |  |  |  |  |  |  |  |  |  |  |  |  |  |  |  | 16 (≈ 39.9 µM) | 8 (≈ 19.9 µM) | 8 (≈ 19.9 µM) |
| O=C(O)c1cn(C2CC2)c2cc(N3CCNCC3)c(F)cc2c1=O [CIPROFLOXACIN] |  |  |  |  |  |  |  |  |  |  |  |  |  |  |  |  | 16 (≈ 48.3 µM) | 32 (≈ 96.6 µM) |

Source: ChEMBL document CHEMBL4680060, “Polybasic peptide-levofloxacin conjugates potentiate fluoroquinolones and other classes of antibiotics against multidrug-resistant Gram-negative bacteria” (Medchemcomm, 2019)
